Measured values published in ChEMBL document CHEMBL1154295, “Potent and selective steroidal inhibitors of 17beta-hydroxysteroid dehydrogenase type 7, an enzyme that catalyzes the reduction of the key hormones estrone and dihydrotestosterone” (J Med Chem, 2009).

Key:
[1] = molecular target: T1, 3-keto-steroid reductase/17-beta-hydroxysteroid dehydrogenase 7 (Homo sapiens) (UniProt P56937); settings: HEK293, at 3 µM
T1 sequence (whole entry): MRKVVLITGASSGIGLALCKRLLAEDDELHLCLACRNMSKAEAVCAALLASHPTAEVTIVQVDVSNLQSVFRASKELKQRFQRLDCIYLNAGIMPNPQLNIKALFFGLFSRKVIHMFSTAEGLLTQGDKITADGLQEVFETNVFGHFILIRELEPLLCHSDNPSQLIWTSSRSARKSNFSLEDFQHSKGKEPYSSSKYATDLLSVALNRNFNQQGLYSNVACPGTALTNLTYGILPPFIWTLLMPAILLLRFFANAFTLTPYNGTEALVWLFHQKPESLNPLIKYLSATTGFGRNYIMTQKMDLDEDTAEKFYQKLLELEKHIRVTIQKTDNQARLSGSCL
Description: Inhibition of human 17beta-HSD7 expressed in HEK293 cells assessed as inhibition of reduction of [14C]estrone into [14C]estradiol at 3 uM after 7 hrs

[2] = molecular target: T1, 3-keto-steroid reductase/17-beta-hydroxysteroid dehydrogenase 7 (Homo sapiens); settings: HEK293, at 0.3 µM
Description: Inhibition of human 17beta-HSD7 expressed in HEK293 cells assessed as inhibition of reduction of [14C]estrone into [14C]estradiol at 0.3 uM after 7 hrs

| Structure (SMILES) | inhibition [1] [%] | inhibition [2] [%] |
| --- | --- | --- |
| CC(C)C(=O)N(c1ccc([N+](=O)[O-])c(C(F)(F)F)c1)[C@H]1CC[C@H]2[C@@H]3CC[C@H]4N(C)C(=O)CC[C@]4(C)[C@H]3CC[C@]12C | 71.3 | 13.7 |
| CC1CC[C@@]2(CC[C@H]3[C@@H]4CCc5cc(O)ccc5[C@H]4CC[C@@]32C)OC1=O (stereo partly drawn) | 32.1 | 14.4 |
| CCS(=O)(=O)Oc1ccc2c(c1)CC[C@@H]1[C@@H]2CC[C@@]2(C)[C@H]1CC[C@@]21CCC(C)(C)C(=O)O1 | 60.9 | 21 |
| C[C@]12CC[C@@H](O)C[C@H]1CC[C@@H]1[C@@H]2CC[C@]2(C)[C@@H](O)CC[C@@H]12 | 6 | 2.9 |
| CCCCCN(C(=O)CCCC)[C@H]1CC[C@H]2[C@@H]3CC[C@H]4N(C)C(=O)CC[C@]4(C)[C@H]3CC[C@]12C | 79.7 | 27.3 |
| C[C@]12CCC(=O)N[C@@H]1CC[C@@H]1[C@@H]2CC[C@]2(C)[C@@H](N(C(=O)c3ccccc3)c3ccccc3)CC[C@@H]12 | 64.1 | 24 |
| C[C@]12CCC(=O)C[C@@H]1CC[C@@H]1[C@@H]2CC[C@@]2(C)[C@H]1CC[C@@]21CCCC(=O)O1 | 30.9 | 18.6 |
| CN1C(=S)CC[C@]2(C)[C@H]3CC[C@@]4(C)[C@@H](CC[C@@]45CCCC(=O)O5)[C@@H]3CC[C@@H]12 | 12.9 | 11.9 |
| CC(=O)[C@H]1CC[C@H]2[C@@H]3CCC4=CC(=O)CC[C@]4(C)[C@H]3CC[C@]12C | 19.1 | 7.3 |
| CCCCCCN(C=O)[C@H]1CC[C@H]2[C@@H]3CC[C@H]4N(C)C(=O)CC[C@]4(C)[C@H]3CC[C@]12C | 100 | 94.1 |
| COc1ccc(N(C(=O)C(C)C)[C@H]2CC[C@H]3[C@@H]4CC[C@H]5N(C)C(=O)CC[C@]5(C)[C@H]4CC[C@]23C)cc1 | 99.8 | 41.1 |
| CCCN(CC1C2CC3CC(C2)CC1C3)C[C@@]1(O)CC[C@@]2(C)[C@@H](CC[C@@H]3[C@@H]2CC[C@]2(C)C(=O)CC[C@@H]32)C1 (stereo partly drawn) | 18.8 | 29 |
| CCCNC(=O)N(C1CC1)[C@H]1CC[C@H]2[C@@H]3CC[C@H]4N(C)C(=O)C=C[C@]4(C)[C@H]3CC[C@]12C | 8.5 | 7.8 |
| C[C@@]12CCC[C@H]1[C@@H]1CCc3cc(O)ccc3[C@H]1CC2 | 6 | 4.5 |
| CC1CC(=O)O[C@]2(CC[C@H]3[C@@H]4CCc5cc(O)ccc5[C@H]4CC[C@@]32C)C1 (stereo partly drawn) | 22.9 | 14 |
| CC1(C)CC[C@@]2(CC[C@H]3[C@@H]4CCc5c(cc(Cl)c(O)c5Cl)[C@H]4CC[C@@]32C)OC1=O | 37 | 20.2 |
| CN(C=O)[C@H]1CC[C@H]2[C@@H]3CC[C@H]4N(C)C(=O)CC[C@]4(C)[C@H]3CC[C@]12C | 15.8 | 14.5 |
| C[C@]12CC[C@@H]3c4ccccc4CC[C@H]3[C@@H]1CC[C@@]21CCCC(=O)O1 | 4.7 | 6.1 |
| C[C@]12C[C@H](O)[C@H]3[C@@H](CCC4=CC(=O)CC[C@@]43C)[C@@H]1CC[C@@H]2C(=O)CO | 14.9 | 8.1 |
| CC1(C)CC[C@@]2(CC[C@H]3[C@@H]4CCc5cc(O)ccc5[C@H]4CC[C@@]32C)OC1=O | 69.4 | 20.1 |
| CC(C)C(=O)Nc1ccc([N+](=O)[O-])c(C(F)(F)F)c1 | 10.8 | 18.6 |
| C[C@]12CCC(=O)N[C@@H]1CC[C@@H]1[C@@H]2CC[C@]2(C)[C@@H](N3CCC3=O)CC[C@@H]12 | 20.3 | 15.4 |
| COC(=O)[C@H]1CC[C@H]2[C@@H]3CC=C4C=C(Cl)CC[C@]4(C)[C@H]3CC[C@]12C | 16.2 | 0.6 |
| C[C@]12CC[C@@H]3c4ccc(S(N)(=O)=O)cc4CC[C@H]3[C@@H]1CCC2=O | 6.1 | 4.2 |

| Structure (SMILES) | inhibition [1] [%] | inhibition [2] [%] |
| --- | --- | --- |
| CN1C(=O)CC[C@]2(C)[C@H]3CC[C@]4(C)[C@@H](N(C(=O)NC5CCCCC5)C5CC5)CC[C@H]4[C@@H]3CC[C@@H]12 | 54.7 | 8.4 |
| CC(C)NC(=O)N(C1CC1)[C@H]1CC[C@H]2[C@@H]3CC[C@H]4N(C)C(=O)CC[C@]4(C)[C@H]3CC[C@]12C | 37.3 | 16.5 |
| CC1(C)CC[C@@]2(CC[C@H]3[C@@H]4CC[C@H]5NC(=O)C=C[C@]5(C)[C@H]4CC[C@@]32C)OC1=O | 39.6 | 5 |
| O=c1cc(-c2ccccc2)oc2cc(O)cc(O)c12 | 5.1 | 6.8 |
| CCN(C(=O)c1ccccc1)[C@H]1CC[C@H]2[C@@H]3CC[C@H]4N(C)C(=O)CC[C@]4(C)[C@H]3CC[C@]12C | 99.4 | 63.4 |
| CC(C)NC(=O)N(C1CC1)[C@H]1CC[C@H]2[C@@H]3CC[C@H]4N(C)C(=O)C=C[C@]4(C)[C@H]3CC[C@]12C | 2.5 | 3.6 |
| C[C@@]12C=CC[C@H]1[C@@H]1CCc3cc(O)ccc3[C@H]1CC2 | 5.8 | 7.5 |
| CC1(C)CC[C@@]2(CC[C@H]3[C@@H]4CCc5cc(C(=O)Oc6ccccc6)ccc5[C@H]4CC[C@@]32C)OC1=O | 28.6 | 14 |
| CN(C(=O)NC1CCCCC1)[C@H]1CC[C@H]2[C@@H]3CC[C@H]4N(C)C(=O)CC[C@]4(C)[C@H]3CC[C@]12C | 16.3 | 12.2 |
| CCC[C@]1(O)CC[C@H]2[C@@H]3CC[C@H]4N(C)C(=O)CC[C@]4(C)[C@H]3CC[C@@]21C | 98.5 | 47.6 |
| CN1C(=O)C=C[C@]2(C)[C@H]3CC[C@]4(C)[C@@H](N(C(=O)NC5CCCCC5)C5CC5)CC[C@H]4[C@@H]3CC[C@@H]12 | 0.8 | 8.2 |
| C[C@]12CC[C@@H]3c4ccc(O)cc4CC[C@H]3[C@@H]1CC[C@H]2O | 0 |  |
| CCC(=C(c1ccc(O)cc1)c1ccc(OCCN(C)C)cc1)c1ccccc1 | 3 |  |
| C[C@]12CCC(=O)C[C@@H]1CC[C@@H]1[C@@H]2CC[C@@]2(C)[C@H]1CC[C@]2(O)C(=O)CO | 13.4 |  |
| C[C@]12CC[C@H](O)C=C1CC[C@@H]1[C@@H]2CC[C@]2(C)C(=O)CC[C@@H]12 | 12.2 |  |
| CC(=O)[C@H]1CC[C@H]2[C@@H]3CC=C4C[C@@H](O)CC[C@]4(C)[C@H]3CC[C@]12C | 13.2 |  |
| C[C@]12CCc3c(ccc4cc(O)ccc34)[C@@H]1CCC2=O | 14.2 |  |
| C[C@]12CCC(=O)C[C@@H]1CC[C@@H]1[C@@H]2[C@@H](O)C[C@@]2(C)[C@H]1CC[C@]2(O)C(=O)CO | 17.2 |  |
| CC1(C)CC[C@@]2(CC[C@H]3[C@@H]4CCc5ccccc5[C@H]4CC[C@@]32C)OC1=O | 18.6 |  |
| C[C@]12CC[C@@H]3c4ccc(O)cc4C[C@@H](CCCCCCCCC[S+]([O-])CCCC(F)(F)C(F)(F)F)[C@H]3[C@@H]1CC[C@@H]2O (stereo partly drawn) | 15.7 |  |
| C[C@]12CC[C@H]3[C@@H](CCC4=CC(=O)CC[C@@]43C)[C@@H]1CC[C@@H]2O | 7.5 |  |
| CN(C)C(=O)CCCCCCCCCCC1Cc2cc(O)ccc2[C@H]2CC[C@]3(C)[C@@H](O)[C@H](Cl)C[C@H]3[C@H]12 (stereo partly drawn) | 18.5 |  |
| C[C@]12CC[C@@H](O)C[C@@H]1CC[C@@H]1[C@@H]2CC[C@]2(C)C(=O)CC[C@@H]12 | 2.2 |  |
| CC(=O)[C@@]1(O)CC[C@H]2[C@@H]3CCC4=CC(=O)CC[C@]4(C)[C@H]3CC[C@@]21C | 20.8 |  |
